Each structure is given as a SMILES string. Structures can show the parent of a compound that is named as a salt.

Sequence of Full length KDM2B (Q8NHM5 whole entry): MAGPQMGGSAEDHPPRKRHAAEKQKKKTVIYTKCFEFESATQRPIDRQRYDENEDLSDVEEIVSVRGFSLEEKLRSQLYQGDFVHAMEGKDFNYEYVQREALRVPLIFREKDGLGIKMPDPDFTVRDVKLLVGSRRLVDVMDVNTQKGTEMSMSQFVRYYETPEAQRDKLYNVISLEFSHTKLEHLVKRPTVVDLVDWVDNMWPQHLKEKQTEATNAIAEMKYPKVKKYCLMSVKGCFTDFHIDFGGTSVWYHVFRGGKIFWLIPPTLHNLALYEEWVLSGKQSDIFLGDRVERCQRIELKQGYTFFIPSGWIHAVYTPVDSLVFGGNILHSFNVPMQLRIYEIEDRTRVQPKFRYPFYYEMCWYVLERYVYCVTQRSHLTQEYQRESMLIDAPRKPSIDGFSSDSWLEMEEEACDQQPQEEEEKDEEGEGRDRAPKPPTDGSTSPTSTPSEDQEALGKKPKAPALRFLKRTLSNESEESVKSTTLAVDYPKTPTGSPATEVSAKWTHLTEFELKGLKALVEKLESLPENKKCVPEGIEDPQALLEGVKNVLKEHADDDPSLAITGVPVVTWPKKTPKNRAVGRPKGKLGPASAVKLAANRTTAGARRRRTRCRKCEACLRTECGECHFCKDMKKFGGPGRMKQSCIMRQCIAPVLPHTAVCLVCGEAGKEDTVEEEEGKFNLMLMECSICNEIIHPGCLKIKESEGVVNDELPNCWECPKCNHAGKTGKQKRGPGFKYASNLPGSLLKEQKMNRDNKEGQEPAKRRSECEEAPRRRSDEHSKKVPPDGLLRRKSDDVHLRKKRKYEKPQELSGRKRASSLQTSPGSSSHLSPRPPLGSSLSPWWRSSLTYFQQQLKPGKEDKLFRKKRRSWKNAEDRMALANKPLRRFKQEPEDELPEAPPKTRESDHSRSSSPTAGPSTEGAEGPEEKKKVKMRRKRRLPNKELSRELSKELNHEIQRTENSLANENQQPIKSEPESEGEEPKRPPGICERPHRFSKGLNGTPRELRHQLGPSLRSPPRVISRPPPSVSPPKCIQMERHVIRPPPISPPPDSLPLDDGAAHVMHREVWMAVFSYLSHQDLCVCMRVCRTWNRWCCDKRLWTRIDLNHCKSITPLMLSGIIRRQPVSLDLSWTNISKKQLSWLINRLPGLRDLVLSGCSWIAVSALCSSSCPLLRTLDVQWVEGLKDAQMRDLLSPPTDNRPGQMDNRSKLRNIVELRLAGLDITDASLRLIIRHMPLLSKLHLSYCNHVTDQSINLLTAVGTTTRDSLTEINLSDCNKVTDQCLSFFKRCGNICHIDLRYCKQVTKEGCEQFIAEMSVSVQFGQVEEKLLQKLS

The target of this assay is Full length KDM2B (Homo sapiens (Human), UniProt Q8NHM5). Nature of the assay: KDM2B TR-FRET assay for determining inhibitor IC50. The format is biochemical. The conditions noted are these: TR-FRET (HTRF), biotin-H3K36me2 peptide substrate, 2-OG 0.3 μM or 6 μM. The text has this:
KDM2B TR-FRET Assay for Determining Inhibitor IC50
The KDM2B TR-FRET Assay described above represents an additional embodiment of the invention.
(In general: Time-resolved FRET reads energy transfer from a long-lived donor to a nearby acceptor.)
`CCCN1CCCC(C(=O)c2ccccc2-c2ccccc2)C1` (centres unmarked) [Example 102, (2-phenylphenyl)-(1-propyl-3-piperidyl)methanone] returned an IC50 of 5800 nM.
The result for `CCCN1CCCC(C(=O)c2ccc3c(CC#N)c(OC)ccc3c2)C1` (centres unmarked) [Example 56, 2-[2-methoxy-6-(1-propylpiperidine-3-carbonyl)-1-naphthyl]acetonitrile] reads 270 nM.
Regarding `CN(C)C(=O)c1ccc2cc(C(=O)C3CCCN(C4CCCC4)C3)ccc2c1` (centres unmarked) [Example 178], half-maximal inhibition (IC50) was put at 188 nM.
`N#Cc1cc(C(=O)C2CCCN(CC3CC3)C2)cc2ccccc12` (centres unmarked) [Example 43, 3-[1-(cyclopropylmethyl)piperidine-3-carbonyl]naphthalene-1-carbonitrile] displayed an IC50 of 143 nM. The IC50 values of the last two compounds are within 1.5-fold of each other.
The result for `COc1cccc2cc(C(=O)C3CCCN(CC4CC4)C3)ccc12` (centres unmarked) [Example 114, (1-(cyclopropylmethyl)piperidin-3-yl)(5-methoxynaphthalen-2-yl)methanone] reads 220 nM; that for `C[C@H]1CCN(CC2CC2)C[C@@H]1C(=O)c1ccc2cc(C#N)ccc2c1` (stereo in doubt) [Example 160a, 6-(1-(cyclopropylmethyl)-4-methylpiperidine-3-carbonyl)-2-naphthonitrile], 1700 nM; that for `O=C(c1ccc(-c2ccccn2)cc1)C1CCCN(CC2CC2)C1` (centres unmarked) [Example 38, [1-(cyclopropylmethyl)-3-piperidyl]-[4-(2-pyridyl)phenyl]methanone], 596 nM.
The compound `CCCN1CCCC(C(=O)c2ccc3c(C)c(OC)ccc3c2)C1` (centres unmarked) [Example 50, (6-methoxy-5-methyl-2-naphthyl)-(1-propyl-3-piperidyl)methanone] showed an IC50 of 26 nM.
The compound `CCCN1CCCC(C(=O)c2ccc(Cl)c(Cl)c2)C1` (centres unmarked) [Example 101, (3,4-dichlorophenyl)-(1-propyl-3-piperidyl)methanone] returned an IC50 of 279 nM.
For the compound `O=C(c1ccc(-c2ccccc2)nc1)C1CCCN(CC2CC2)C1` (centres unmarked) [Example 36, [1-(cyclopropylmethyl)-3-piperidyl]-(6-phenyl-3-pyridyl)methanone], the IC50 turned out to be 533 nM. This IC50 lies about 1.9-fold higher than the previous one.
Compound `COc1ccc2cc(C(=O)C3CN(C4CCC4)CCN3Cc3cccc(C#N)c3)ccc2c1` (centres unmarked) [Example 193, 3-[[4-cyclobutyl-2-(6-methoxynaphthalene-2-carbonyl)piperazin-1-yl]methyl]benzonitrile] came in with an IC50 of 22.3 nM. Compared with the last compound, the IC50 is about 24-fold lower.
`CN(C)C(=O)c1ccc2cc(C(=O)C3CCCN(CC4CC4)C3)ccc2c1` (centres unmarked) [Example 176, 6-(1-(cyclopropylmethyl)piperidine-3-carbonyl)-N,N-dimethyl-2-naphthamide] had an IC50 of 214 nM.
For the compound `O=C(c1ccc2cnccc2c1)C1CCCN(C2CCC2)C1` (centres unmarked) [Example 135], the midpoint of inhibition, the IC50, lay at 226 nM.
On to `CCCN1CCCC(C(=O)c2ccc(OC)c(OC)c2)C1` (centres unmarked) [Example 104, (3,4-dimethoxyphenyl)-(1-propyl-3-piperidyl)methanone], for which the IC50 was 744 nM.
The result for `CCCN1CC[C@H](C)[C@H](C(=O)c2ccc3c(CC#N)c(OC)ccc3c2)C1` (stereo in doubt) [Example 181b, 2-(2-methoxy-6-(4-methyl-1-propylpiperidine-3-carbonyl)naphthalen-1-yl)acetonitrile] reads 12.3 nM.
`O=C(c1ccc(-c2ccccc2)cc1)[C@H]1CCCN(CC2CC2)C1` [Example 33, [(3S)-1-(cyclopropylmethyl)-3-piperidyl]-(4-phenylphenyl)methanone] came in with an IC50 of 95.4 nM. Against the preceding compound, the IC50 is about 7.8-fold higher.
Take `CCCN1CCCC(C(=O)c2ccc3cccc(C)c3c2)C1` (centres unmarked) [Example 60, (8-methyl-2-naphthyl)-(1-propyl-3-piperidyl)methanone]: it took 125 nM to reach half-maximal inhibition (IC50).
As to `COc1ccccc1C(=O)[C@@H]1CCCN(CC2CC2)C1` (stereo in doubt) [Example 111, (1-(cyclopropylmethyl)piperidin-3-yl)(2-methoxyphenyl)methanone], the IC50 was found to be 3100 nM.
As to `COc1ccc2cc(C(=O)C3CCCN(C4CC(C#N)C4)C3)ccc2c1` (centres unmarked) [Example 65, 3-[3-(6-methoxynaphthalene-2-carbonyl)-1-piperidyl]cyclobutanecarbonitrite], the IC50 is 309 nM.
Consider `CS(=O)(=O)c1ccc2cc(C(=O)C3CCCN(C4CCCC4)C3)ccc2c1` (centres unmarked) [Example 171, (1-cyclopentylpiperidin-3-yl)(6-(methylsulfonyl)naphthalen-2-yl)methanone], for which the midpoint of inhibition, the IC50, lay at 102 nM.
`C[C@@H]1CCN(C2CCCC2)C[C@H]1C(=O)c1ccc2cc(C#N)ccc2c1` (stereo in doubt) [Example 162b, 6-(1-cyclopentyl-4-methylpiperidine-3-carbonyl)-2-naphthonitrile] came in with an IC50 of 85.7 nM. The IC50 values of the last two compounds are within 1.5-fold of each other.
The result for `COc1cccc(C(=O)[C@@H]2CCCN(CC3CC3)C2)c1` (stereo in doubt) [Example 109a, (1-(cyclopropylmethyl)piperidin-3-yl)(3-methoxyphenyl)methanone] reads 14100 nM; that for `N#Cc1ccc2cc(C(=O)C3CCCN(CC4CC4)C3)ccc2c1` (centres unmarked) [Example 159, 6-(1-(cyclopropylmethyl)piperidine-3-carbonyl)-2-naphthonitrile], 68.8 nM; that for `COc1ccc2cc(C(=O)[C@@]3(F)CCCN(CC4CC4)C3)ccc2c1` (stereo in doubt) [Example 157], 6100 nM.
`COc1ccc2cc(C(=O)C3CN(CC4CC4)CCC3OC)ccc2c1` (single isomer, unassigned) [Example 146a, (1-(cyclopropylmethyl)-4-methoxypiperidin-3-yl)(6-methoxynaphthalen-2-yl)methanone] displayed an IC50 of 382 nM.
The compound `O=C(c1cccc2ccccc12)C1CCCN(CC2CC2)C1` (centres unmarked) [Example 126, (1-(cyclopropylmethyl)piperidin-3-yl)(naphthalen-1-yl)methanone] had an IC50 of 3800 nM.
For `CC1CCN(C2CCCC2)CC1C(=O)c1ccc2cc(C#N)ccc2c1` (centres unmarked) [Example 162a, 6-(1-cyclopentyl-4-methylpiperidine-3-carbonyl)-2-naphthonitrile], half-maximal inhibition (IC50) required 814 nM.
In turn, `COc1ccc2cc(C(=O)C3CN(C4CCC4)CCC3CC(C)C)ccc2c1` (single isomer, unassigned) [Example 144b, (1-cyclobutyl-4-isobutylpiperidin-3-yl)(6-methoxynaphthalen-2-yl)methanone] yielded an IC50 of 269 nM.
Consider `CCCN1CC[C@H](C)[C@@H](C(=O)c2ccc3cc(C#N)ccc3c2)C1` (stereo in doubt) [Example 163a, 6-(4-methyl-1-propylpiperidine-3-carbonyl)-2-naphthonitrile], for which the IC50 is 993 nM.
The compound `CCCN1CCCC(C(=O)c2cc(C(C)O)c3ccccc3c2)C1` (centres unmarked) [Example 68, [4-(1-hydroxyethyl)-2-naphthyl]-(1-propyl-3-piperidyl)methanone] gave an IC50 of 76.2 nM.
On to `O=C(c1ccc2cc(CO)ccc2c1)C1CCCN(C2CCCC2)C1` (centres unmarked) [Example 154, (1-cyclopentylpiperidin-3-yl)(6-(hydroxymethyl)naphthalen-2-yl)methanone], for which 183 nM corresponded to half-maximal inhibition (IC50). This IC50 lies about 2.4-fold higher than the previous one.
For `CC(O)c1cc(C(=O)C2CCCN(C3CCC3)C2)cc2ccccc12` (centres unmarked) [Example 64, (1-cyclobutyl-3-piperidyl)-[4-(1-hydroxyethyl)-2-naphthyl]methanone], the IC50 is 43.8 nM.
For the compound `COc1ccc2cc(C(=O)C3CN(C4CCC4)CCN3CC3CC3)ccc2c1` (centres unmarked) [Example 192, [4-cyclobutyl-1-(cyclopropylmethyl)piperazin-2-yl]-(6-methoxy-2-naphthyl)methanone], the IC50 is 385 nM.
In turn, `O=C(c1cc2ccccc2s1)C1CCCN(CC2CC2)C1` (centres unmarked) [Example 120, Benzo[b]thiophen-2-yl(1-(cyclopropylmethyl)piperidin-3-yl)methanone] yielded an IC50 of 389 nM.
`O=C(c1cccc(Oc2ccccc2)c1)[C@H]1CCCN(CC2CC2)C1` [Example 28, [(3S)-1-(cyclopropylmethyl)-3-piperidyl]-(3-phenoxyphenyl)methanone] came in with an IC50 of 1700 nM.
`O=C(c1cnn(-c2ccccc2)c1)C1CCCN(CC2CC2)C1` (centres unmarked) [Example 124, (1-(cyclopropylmethyl)piperidin-3-yl)(1-phenyl-1H-pyrazol-4-yl)methanone] came in with an IC50 of 656 nM. This IC50 lies about 2.6-fold lower than the previous one.
Turning to `N#Cc1cc(C(=O)C2CCCN(C3CCC3)C2)cc2ccccc12` (centres unmarked) [Example 44, 3-(1-cyclobutylpiperidine-3-carbonyl)naphthalene-1-carbonitrile], 101 nM corresponded to half-maximal inhibition (IC50). Compared with the last compound, the IC50 is about 6.5-fold lower.
For `CCCN1CCCC(C(=O)c2ccc(OC)cc2)C1` (centres unmarked) [Example 97, (4-methoxyphenyl)-(1-propyl-3-piperidyl)methanone], 930 nM corresponded to half-maximal inhibition (IC50).
The result for `COc1ccc2cc(C(=O)[C@@H]3CN(CC4CC4)CC[C@H]3C)ccc2c1` (single isomer, unassigned) [Example 137b, (1-(cyclopropylmethyl)-4-methylpiperidin-3-yl)(6-methoxynaphthalen-2-yl)methanone] reads 92.8 nM.
For `O=C(c1ccc(F)c2ccccc12)C1CCCN(CC2CC2)C1` (centres unmarked) [Example 127, (1-(cyclopropylmethyl)piperidin-3-yl)(4-fluoronaphthalen-1-yl)methanone hydrochloride], the IC50 worked out at 1900 nM.
In turn, `O=C(c1ccc2ccccc2n1)[C@@H]1CCCN(CC2CC2)C1` (stereo in doubt) [Example 117b, (1-(cyclopropylmethyl)piperidin-3-yl)(quinolin-2-yl)methanone] registered an IC50 of 750 nM.
The compound `CCCN1CCCC(C(=O)c2ccc(Cl)cc2)C1` (centres unmarked) [Example 91, (4-chlorophenyl)-(1-propyl-3-piperidyl)methanone] came in with an IC50 of 1600 nM.
`CC[C@H]1CCN(C2CCC2)C[C@H]1C(=O)c1ccc2c(CC#N)c(OC)ccc2c1` (stereo in doubt) [Example 183d, 2-(6-(1-cyclobutyl-4-ethylpiperidine-3-carbonyl)-2-methoxynaphthalen-1-yl)acetonitrile] came in with an IC50 of 1.53 nM.
`Cc1c(C#N)ccc2cc(C(=O)C3CCCN(C4CCCC4)C3)ccc12` (centres unmarked) [Example 73, 6-(1-cyclopentylpiperidine-3-carbonyl)-1-methyl-2-naphthonitrile] came in with an IC50 of 327 nM. Against the preceding compound, the IC50 is about 210-fold higher.

The IC50 is the concentration that inhibits the measured activity by half. Low values mean inhibition by little substance, high ones a need for much substance.

The values above are taken from US10280149B2, “Therapeutic compounds and uses thereof” (GENENTECH, INC., priority 2015, dated 2019).
